Converted amounts (≈) assume the structure as drawn.
Experiments:
[1] = aqueous room temperature solubility; type: physicochemical; settings: for solubility: water, aqueous, room temperature
Experimental: (§1) The aqueous room temperature solubilities of Compounds A and Compound B is 6.9 μg/mL and 2.0 μg/mL, respectively. Daily doses of Compound A ranging from 10 mg to 100 mg per day have been administered to approximately 1000 subject in clinical studies to date. […] Therefore a controlled release dosage is clearly needed for Compound A.

[2] = pharmacokinetic parameters of Compound A in monkeys; settings: monkey, in vivo, 10 mg/kg PO
Experimental: as §1

CCOc1cc([C@@H](CS(C)(=O)=O)N2Cc3cccc(NC(=O)C4CC4)c3C2=O)ccc1OC [Compound B, cyclopropanecarboxylic acid {2-[(1S)-1-(3-ethoxy-4-methoxy-phenyl)-2-methanesulfonyl-ethyl]-3-oxo-2,3-dihydro-1H-isoindol-4-yl}-amide]
solubility [1]: 2 µg/mL (≈ 4.23 µM)

CCOc1cc([C@@H](CS(C)(=O)=O)N2C(=O)c3cccc(NC(C)=O)c3C2=O)ccc1OC [Compound A, (S)—N-{2-[1-(3-ethoxy-4-methoxy-phenyl)-2-methanesulfonylethyl]-1,3-dioxo-2,3-dihydro-1H-isoindol-4-yl}acetamide]
aqueous solubility of amorphous form compared to crystalline forms ([1]; amorphous form vs crystalline forms): greater aqueous solubility | solubility [1]: 6.9 µg/mL (≈ 15 µM) | half-life [2]: ~2 h

Source: patent US9532977B2, “Controlled release oral dosage forms of poorly soluble drugs and uses thereof” (Celgene Corporation, priority 2010, dated 2017)
